Data from patent US20240254118A1, “PRMT5 INHIBITORS AND USES THEREOF” (Gilead Sciences, Inc., priority 2022, published 2024).

Columns and labels:
[1] = tested on: SDMA signal (PRMT5 inhibition) in HCT116 MTAP-deleted cells; assay: Symmetric di-methyl arginine image-based high content screen assay (SDMA assay), HCT116 MTAP-deleted; format: cell-based; conditions: SDMA assay; for EC50: Homo sapiens, HCT-116, 72 h, 3 days of treatment, cell line not given, taken as HCT116 MTAP-deleted, read-out: EC50 (SDMA assay); for EC50 selectivity (SDMA assay): taken as HCT116 WT versus MTAP-deleted
Outline: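 Read-out: per-cell mean SDMA immunofluorescence (Alexa Fluor 488 secondary), cells segmented by DAPI on a high-content imager. Compound exposure in HCT116 MTAP-deleted cells lasted until fixation on Day 3; overnight 4° C primary anti-SDMA antibody staining.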

[2] = tested on: HCT116 MTAP-deleted cells; assay: Cell viability assay (CellTiter-Glo, 7 days), HCT116 MTAP-deleted; conditions: Homo sapiens, HCT-116, 168 h

| EC50 [1] [nM] | EC50 selectivity (SDMA assay) [1] | SMILES | CC50 [2] [nM] |
| --- | --- | --- | --- |
| < 1 | 24 | CN(CC1CC1)N(Cc1ccc(C(F)(F)F)cn1)C(=O)c1cc2c(cc1F)nc(N)c1cnn(C)c12 [Example 174, 4-amino-N′-(cyclopropylmethyl)-7-fluoro-N′,1-dimethyl-N-[[5-(trifluoromethyl)-2-pyridyl]methyl]pyrazolo[4,3-c]quinoline-8-carbohydrazide] | < 100 |
| 1 to 5 | 19 | CN(C(=O)c1ccnn1C)N(Cc1ccc(C(F)(F)F)cn1)C(=O)c1ccc2nc(N)c3cnn(C)c3c2c1 [Example 175, 4-amino-N′,1-dimethyl-N′-(1-methyl-1H-pyrazole-5-carbonyl)-N-((5-(trifluoromethyl)pyridin-2-yl)methyl)-1H-pyrazolo[4,3-c]quinoline-8-carbohydrazide] | < 100 |
| 1 to 5 | 35 | CC(=O)N(C)N(Cc1ccc(C#CC(C)(C)S(C)(=O)=O)cc1F)C(=O)c1ccc2nc(N)c3cnn(C)c3c2c1 [Example 176, N′-acetyl-4-amino-N-(2-fluoro-4-(3-methyl-3-(methylsulfonyl)but-1-yn-1-yl)benzyl)-N′,1-dimethyl-1H-pyrazolo[4,3-c]quinoline-8-carbohydrazide] | 100 to 1000 |

Second part, the compound before the results:

| SMILES | EC50 [1] [nM] | EC50 selectivity (SDMA assay) [1] | CC50 [2] [nM] |
| --- | --- | --- | --- |
| CC(=O)N(C)N(Cc1ccc(C(F)(F)F)cn1)C(=O)c1cc2c3c(c(N)nc2cc1F)[C@@H](C)OC3 [Example 167, (3R)—N′-acetyl-4-amino-7-fluoro-N′,3-dimethyl-N-[[5-(trifluoromethyl)-2-pyridyl]methyl]-1,3-dihydrofuro[3,4-c]quinoline-8-carbohydrazide] | < 1 | 10 | < 100 |
| CC(=O)N(C)N(Cc1ccc(C(F)(F)F)cn1)C(=O)c1ccc2nc(N)c3c(c2c1)COC3 [Example 168, N′-acetyl-4-amino-N′-methyl-N-[[5-(trifluoromethyl)-2-pyridyl]methyl]-1,3-dihydrofuro[3,4-c]quinoline-8-carbohydrazide] | < 1 | 97 | < 100 |
| Cn1ncc2c(N)nc3ccc(C(=O)N(Cc4nc5ccccc5s4)N4CCC(F)(F)C4=O)cc3c21 [Example 169, 4-amino-N-(1,3-benzothiazol-2-ylmethyl)-N-(3,3-difluoro-2-oxo-pyrrolidin-1-yl)-1-methyl-pyrazolo[4,3-c]quinoline-8-carboxamide] | 1 to 5 | 14 | < 100 |
| Cn1ncc2c(N)nc3ccc(C(=O)N(Cc4ccc(C(F)(F)F)cn4)N4CC5(CC5)CC4=O)cc3c21 [Example 170, 4-amino-1-methyl-N-(6-oxo-5-azaspiro[2.4]heptan-5-yl)-N-((5-(trifluoromethyl)pyridin-2-yl)methyl)-1H-pyrazolo[4,3-c]quinoline-8-carboxamide] | < 1 | 146 | < 100 |
| Cn1ncc2c(N)nc3ccc(C(=O)N(Cc4ccc(C(F)(F)F)cn4)N4CCC(F)(F)C4=O)cc3c21 [Example 171, 4-amino-N-(3,3-difluoro-2-oxo-pyrrolidin-1-yl)-1-methyl-N-[[5-(trifluoromethyl)-2-pyridyl]methyl]pyrazolo[4,3-c]quinoline-8-carboxamide] | < 1 | 571 | < 100 |
| CN(CC1CCC1)N(Cc1ccc(C(F)(F)F)cn1)C(=O)c1ccc2nc(N)c3cnn(C)c3c2c1 [Example 172, 4-amino-N′-(cyclobutylmethyl)-N′,1-dimethyl-N-[[5-(trifluoromethyl)-2-pyridyl]methyl]pyrazolo[4,3-c]quinoline-8-carbohydrazide] | 1 to 5 | 153 | < 100 |
| CN(CC1CC1)N(Cc1ccc(C(F)(F)F)cn1)C(=O)c1ccc2nc(N)c3cnn(C)c3c2c1 [Example 173, 4-amino-N′-(cyclopropylmethyl)-N′,1-dimethyl-N-[[5-(trifluoromethyl)-2-pyridyl]methyl]pyrazolo[4,3-c]quinoline-8-carbohydrazide] | < 1 | 117 | < 100 |
